# Values of other authors in patent US12133876B2, “TryNOVID boosts immune system against viruses and variants” (priority 2022, dated 2024).
# How the values were obtained:
# SARS-COV-2 = conditions: binding to SARS-COV-2 (Kulkarni et al., 2020)
# COVID-19 = conditions: high dose; patients requiring hospitalization due to proven COVID-19; plus best-available therapy versus best-available therapy
# enveloped viruses = conditions: Coronavirus, HIV, Measles virus, Herpes simplex virus type 1 and 2, Influenza virus and other listed enveloped viruses (Lieberman et al., 2006)
Compound,binding affinities in molecular docking (SARS-COV-2),also measured
C=CC(C)=CCC=C(C)C [ocimene],good binding affinities,–
"C=C1CC[C@H](O)C/C1=C/C=C1\CCC[C@]2(C)[C@@H]([C@H](C)CCCC(C)(C)O)CC[C@@H]12 [calcifediol, 25-hydroxyvitamin D]",–,need for ICU treatment (COVID-19): significantly reduced
"CCCCCCCCCCCC(=O)OCC(O)CO (stereo not shown) [Monolaurin, glycerol monolaurate]",–,inactivation of enveloped viruses (enveloped viruses): able to inactivate
CC1CCC(C(C)C)C(O)C1 (stereo not shown) [menthol],good binding affinities,–
Cc1ccc(C(C)C)c(O)c1 [thymol],good binding affinities,–
C=C1C2CCC(C2)C1(C)C (stereo not shown) [camphene],good binding affinities,–
CC(C)=C1CC[C@@H](C)CC1=O [pulegone],good binding affinities,–
